Measured values: US20080206149A1, “METHOD, DYE AND MEDICAMENT FOR STAINING THE INTERNAL LIMITING MEMBRANE, EPIRETINAL MEMBRANE, THE VITREOUS AND/OR THE CAPSULE OF AN EYE” (LUDWIG-MAXIMILIANS-UNIVERSITAT MUNCHEN, priority 2005, published 2008)
Entries after “also recorded” stand apart in the source; their conditions may differ.

Columns and labels:
primary RPE cells = test: MTT assay, primary RPE cells; conditions: 0.2% and 0.02% dye, 10 minutes exposure, compared to BSS plus control
Source text: In brief, whole eyes were thoroughly cleansed in 0.9% NaCl solution, immersed in 5% polyvinyl pyrrolidone iodine, and rinsed again in the sodiumchloride solution. The anterior segment from each donor eye was removed and the posterior poles were examined with the aid of a binocular stereomicroscope to confirm the absence of gross retinal disease. Next, the neural retinas were carefully peeled away from the RPE-choroid-sclera using fine forceps. The eye cup was rinsed with Ca^2+ and Mg^2+-free Hank's balanced salt solution, and filled with 0.25% trypsin (GIBCO, Karlsruhe, Germany) for 30 min at 37° C. The trypsin was carefully aspirated and replaced with Dulbecco's modified eagles medium (DMEM, Biochrom, Berlin, Germany) supplemented with 20% fetal calf serum (FCS, Biochrom). Using a pipette, the media was gently agitated, releasing the RPE into the media by avoiding damage to Bruch's membrane. The RPE cell solution was transferred to a 50 ml flask (Falcon, Wiesbaden, Germany) containing 20 ml of DMEM (Biochrom) supplemented with 20% FCS (Biochrom) and maintained at 37° C. and 5% carbon dioxide. […] After having grown to confluency (100%), primary RPE cells were subcultured and maintained in DMEM (Biochrom) supplemented with 10% FCS (Biochrom) at 37° C. and 5% carbon dioxide. Primary RPE of passage 3-6 and ARPE-19 cells were used for experiments.
For exposure of dyes RPE and ARPE-19 cells were kept for 24 hours under serum free conditions. After washing cells three times with PBS, cells were incubated for 10 minutes with 300 μl of BSS plus containing 0.2% or 0.02% of dye, respectively. […] The dye was then removed by carefully rinsing cells with BSS plus three times. After 24 hours incubation with serum containing media the cell proliferation assay was performed. […]
The tetrazolium dye-reduction assay (MTT; 3-[4,5-dimethylthiazol-2-yl]-2,5-diphenyl tetrazolium bromide;) was used to determine cell survival rate. […] Absorption was measured by a scanning multiwell spectrophotometer at 550 nm (Molecular Probes, Garching, Germany). […]

vitreous = test: Vitrectomy for retinal detachment (Example 3); assay type: in vivo, humans
Source text: (§1) This study was approved by the local ethics committee and Institutional Review Board (IRB) and written informed consent was obtained from all patients. Six consecutive patients with idiopathic macular hole, 3 males and 3 females with a mean age of 68 were included. Holes were graded as stage 2 (n=3), stage 3 (n=2) and stage 4 (n=1). The dye was also used in four patients with retinal detachments, 2 females and 2 males with a mean age of 57 years.
Pre- and postoperatively, all patients underwent a complete clinical examination including measurement of best corrected visual acuity (VA), slit lamp examination, tonometry, and funduscopy using a 78 diopter lens (Volk Optical, Mentor, Ohio, USA). In macular hole patients, we additionally performed optical coherence tomography (OCT) (Stratus-OCT, Carl Zeiss Meditec, Jena, Germany), Goldmann perimetry, multifocal electroretinogram (ERG) and fundus photographs. Patients were seen one day before surgery and then in six weeks intervals. Postoperatively, ERG and Goldmann perimetry were performed at the six weeks follow-up visit and were not repeated if unremarkable. […]
The dye was applied as follows: During pars plana vitrectomy for a macular hole a fluid air-exchange was performed prior to dye injection to achieve a maximum dye concentration on the retinal surface. […] The staining characteristics were then evaluated by the surgeon.

[1] = tested on: vitreous and posterior hyaloid; test: Vitrectomy for idiopathic macular hole (Example 3); assay type: in vivo, humans
Source text: as §1
Pre- and postoperatively, all patients underwent a complete clinical examination including measurement of best corrected visual acuity (VA), slit lamp examination, tonometry, and funduscopy using a 78 diopter lens (Volk Optical, Mentor, Ohio, USA). In macular hole patients, we additionally performed optical coherence tomography (OCT) (Stratus-OCT, Carl Zeiss Meditec, Jena, Germany), Goldmann perimetry, multifocal electroretinogram (ERG) and fundus photographs. Patients were seen one day before surgery and then in six weeks intervals. Postoperatively, ERG and Goldmann perimetry were performed at the six weeks follow-up visit and were not repeated if unremarkable.
Bromphenol blue powder was dissolved and diluted using BSS plus and sterilized using a 0.22 μm syringe filter. A final dye concentration of 0.2% was then injected into the eye. Vitrectomy first consisted of a core vitrectomy, followed by vitreous removal in the periphery in the area of the sclerotomy sites by indentation of the globe using a squint hook. Then an attempt was made to induce a posterior vitreous detachment by applying suction at the optic nerve head.
The dye was applied as follows: During pars plana vitrectomy for a macular hole a fluid air-exchange was performed prior to dye injection to achieve a maximum dye concentration on the retinal surface. Then, a few drops of the dye were injected over the posterior pole and the globe was gently moved to allow for an adequate dye distribution (FIG. 8A). This was followed by removal of excessive dye by irrigation after one minute. Then epiretinal tissue was removed if present and an attempt to peel the ILM using an end-gripping forceps was made in selected cases. Surgery was completed by fluid-air exchange and intraocular gas tamponade (hexafluoroethane (C2F6)) as previously described (Haritoglou C., Gandorfer A., Gass C. A., et al., “Indocyanine green-assisted peeling of the internal limiting membrane in macular hole surgery affects visual outcome: a clinicopathologic correlation”, Am J. Ophthalmol 2002; 134: 836-41). During surgery for retinal detachment the dye was applied after induction of a PVD and injection of approximately 1.5 ml heavy liquid (PFCL, perfluorocarbon, Fluoron GmbH, Neu-Ulm, Germany) and fluid-air exchange without removing PFCL (FIG. 8B). Using this approach, we obtained not only a higher dye concentration in the anterior segment of the eye as the dye can not be further diluted by PFCL, but we could also prevent an uncontrolled distribution especially in the subretinal space and excessive contact with the lens capsule, which may result in an unwanted staining effect. In addition we obtained a staining of the vitreous in the periphery as intended. C2F6 was used as an intraocular tamponade at the end of surgery. The staining characteristics were then evaluated by the surgeon.

[2] = tested on: epiretinal membranes, ILM and vitreous; test: Vitreoretinal surgery for macular pucker (Example 4); assay type: in vivo, human; conditions: for staining effect of ERM: washed out after one minute
Source text: The study was approved by the local ethics committee and Institutional Review Board, and written informed consent was obtained from all patients. Thirteen patients with macular pucker, seven males and six females with a mean age of 65, were included in the present study.
Preoperatively and postoperatively, patients underwent a complete clinical examination including measurement of best corrected visual acuity (VA), slit-lamp examination, tonometry, funduscopy using a 78 diopter lens (Volk Optical, Mentor, Ohio, USA), fluorescein angiography, OCT (Stratus), Goldmann perimetry, multifocal ERG and fundus photograph. Patients were seen one day before surgery and then in six-week intervals. Postoperatively, ERG and Goldmann perimetry were performed at the six-week follow-up visit and were not repeated if unremarkable.
Bromphenol blue was dissolved and diluted using BSS plus and sterilised using a 0.22 μm syringe filter and dye concentrations of 0.2% were then injected into the eye.
Vitrectomy consisted of a standard three-port pars plana vitrectomy as described in previous reports (Haritoglou C., Gandorfer A., Gass C. A., et al., “Indocyanine green-assisted peeling of the internal limiting membrane in macular hole surgery affects visual outcome: a clinicopathologic correlation”, Am J. Ophthalmol 2002; 134:836-41; Haritoglou C., Gandorfer A., Gass C. A., et al.: “The effect of indocyanine-green on functional outcome of macular pucker surgery, Am J. Ophthalmol 2003; 135:328-37). Before injection of the dye, a fluid air-exchange was performed to avoid an uncontrolled dye distribution. Then, a few drops of the dye were applied over the macular area. After a period of one minute, the dye was completely washed out by irrigation. The staining characteristics were then evaluated by the surgeon and an additional examiner (CH). This was followed by removal of epiretinal tissue and the ILM using an end-gripping forceps. After the removal of epiretinal tissue, no second dye injection was performed in this series of patients.
All epiretinal tissue removed during surgery was harvested and immediately prepared for ultrastructural analysis. Ultrathin sections were obtained from all specimens, contrasted with uranyl acetate and lead citrate, and analysed using a Zeiss EM 9 electron microscope (Zeiss Jena, Germany).

[3] = Light absorbing properties (UV/VIS/NIR spectrometer); assay type: physicochemical; conditions: measured up to a content of 0.05% dye
Experimental: Light absorption was measured in 0.05% solutions, with BSS plus as a solvent medium. Light absorption was measured instantly after preparation of a stock solution of the dye using a UV/VIS/NIR Spectrometer (Lambda 900, Perkin Elmer) between 200 and 1000 nm.

[4] = 0.2%, listed as Bromphenol blue
[5] = 0.2%, listed as bromphenol blue

O=S1(=O)OC(c2cc(Br)c(O)c(Br)c2)(c2cc(Br)c(O)c(Br)c2)c2ccccc21 [Bromophenol blue, Bromophenole blue]
cell survival of primary RPE cells (MTT) (primary RPE cells): no influence on cell survival
identification of peripheral vitreous remnants at the vitreous base and retinal breaks (vitreous; 0.2%, injected onto PFCL bubble): helped to identify peripheral remnants of vitreous
reattachment of the retina (vitreous; in vivo): could be achieved in all cases
staining of remnant vitreous in the periphery at the vitreous base ([1]; 0.2%, macular hole surgery): could be seen in all cases
staining of the retinal surface or the ILM ([1]; 0.2%, three cases with complete PVD and no epiretinal membrane): no staining of the retinal surface or the ILM
amplitudes in postoperative ERG examinations ([1]; in vivo): no affection of the amplitudes
loss of VA ([1]; in vivo): No loss of VA
peripheral visual field defects indicating dye related toxicity ([1]; in vivo): nor did we observe peripheral visual field defects
staining of the adherent posterior hyaloid membrane ([1]; macular hole patients with incomplete PVD): very useful
VA postoperatively ([1]; overall patients): 20/40
VA preoperatively ([1]; overall patients): 20/100
macular hole closure ([1]; second operation necessary in one case): All macular holes could be closed successfully
staining of the ILM ([2]; 0.2%, patients with ERM): did not observe sufficient staining of the ILM
staining effect of ERM [2, 4]: varied depending on the thickness of the ERM
staining effect of ERM [2, 5]: good staining properties
staining of remnant vitreous at the vitreous base [2, 4]: could he seen in all cases; also recorded: strong staining
staining of remnant vitreous at the vitreous base [2, 5]: good staining properties
histology: cellular integrity of epiretinal cells ([2]; epiretinal membranes of 8 patients, electron microscopy): maintained their cellular integrity
amplitudes in postoperative ERG examinations ([2]; in vivo): no affection of the amplitudes
dye-related complications in any functional test performed ([2]; in vivo): No dye-related complications
loss of VA ([2]; in vivo): No loss of VA
peripheral visual field defects attributable to the dye ([2]; in vivo): nor did we observe peripheral visual field defects
safety profile intraoperatively and during follow-up ([2]; in vivo): very good safety profile
VA postoperatively ([2]; overall patients): 0.32
VA preoperatively ([2]; overall patients): 0.16
position of the long wavelength maximum, influence of dye concentration [3]: not influenced by the dye concentration
